Assay results taken from US20140107166A1, “HISTONE DEACETYLASE INHIBITORS AND METHODS OF USE THEREOF” (DANA-FARBER CANCER INSTITUTE, INC., priority 2011, published 2014).

Tested on: HDACs
Assay: HDAC deacetylase inhibition assay (trypsin-coupled fluorescent substrate)
Format: biochemical
Method: Selected compounds of the invention were tested for activity against a number of HDACs. The assays were performed substantially as described in PCT Patent Application WO/2008/091349. In brief, a target substrate is incubated with an HDAC or other protein with deacetylase activity in the presence of a test compound. In certain embodiments, the target substrate includes an acetylated lysine residue. Deacetylation of the substrate allows trypsin or another protease to cleave the substrate, thereby releasing a fluorescent probe. Fluorescence can be continuously monitored in order to determine the ability of the test compound to inhibit the deacetylation activity. The HDAC or other enzyme may be purified or used crude in the inventive assay. In certain embodiments, the assay is a cell-free assay.

CCCCOc1ccc(CC(=O)NO)cc1 [bufexamac]
inhibition of HDAC (result in words): inhibitor of HDAC
